Our source for the IC50 values is US20150005288A1, “SUBSTITUTED PHENYLIMIDAZOPYRAZOLES AND USE THEREOF” (Bayer Intellectual Property GmbH, priority 2012, published 2015).

The target in this test is T1, intracellular domain of human Tie2 (GST fusion protein) (Homo sapiens, UniProt Q02763).
T1 construct: intracellular domain of human Tie2 (amino acids 776-1124); made in house; host or cells: Baculovirus-infected insect cells (Hi5)
T1 sequence (Q02763 776-1124): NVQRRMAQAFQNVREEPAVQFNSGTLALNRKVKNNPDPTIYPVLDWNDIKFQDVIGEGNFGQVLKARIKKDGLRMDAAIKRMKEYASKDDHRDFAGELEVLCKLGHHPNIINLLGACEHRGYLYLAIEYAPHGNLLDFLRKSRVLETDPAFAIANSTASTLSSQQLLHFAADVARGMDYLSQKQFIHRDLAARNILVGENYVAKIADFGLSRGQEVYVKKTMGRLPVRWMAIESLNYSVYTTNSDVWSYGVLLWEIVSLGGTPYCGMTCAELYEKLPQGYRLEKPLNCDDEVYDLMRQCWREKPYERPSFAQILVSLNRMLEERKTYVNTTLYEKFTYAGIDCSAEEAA
In words: Tie2 kinase assay (Tie2-TR-FRET). The note with it: ATP concentration 1 mM, in some cases means of several independent determinations. The format is biochemical. The gist of the method:
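GST fusion of human Tie2 intracellular domain (aa 776-1124, Hi5-expressed), ~30 ng/ml, pre-incubated 15 min with compound, then 1 mM ATP and 1 μM biotinylated peptide, 60 min at 22 °C, pH 7. TR-FRET (Eu anti-phosphotyrosine/streptavidin-XL665, 665/620 nm ratio). […] 20 μM–0.073 nM in duplicate; IC50 by 4-parameter fit.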
For orientation: TR-FRET usually uses a lanthanide donor and a delayed reading to cut background.
`N#Cc1cc(C(=O)Nc2cccc(-n3ccn4nc(-c5cccnc5)cc34)c2)cc(S(F)(F)(F)(F)F)c1` [Example 87, 3-Cyano-5-(pentafluoro-λ^6-sulphanyl)-N-{3-[6-(pyridin-3-yl)-1H-imidazo[1,2-b]pyrazol-1-yl]-phenyl}benzamide] gave an IC50 of 980 nM.

On to `Cc1ccc(NC(=O)c2cc(Br)cc(S(F)(F)(F)(F)F)c2)cc1-n1ccn2nc(-c3cccnc3)cc12` [Example 89, 3-Bromo-N-{4-methyl-3-[6-(pyridin-3-yl)-1H-imidazo[1,2-b]pyrazol-1-yl]phenyl}-5-(pentafluoro-λ^6-sulphanyl)benzamide], for which the IC50 turned out to be 2.3 nM.

In turn, `COc1ccc(S(F)(F)(F)(F)F)cc1C(=O)Nc1ccc(C)c(-n2ccn3nc(-c4cccnc4)cc23)c1` [Example 90, 2-Methoxy-N-{4-methyl-3-[6-(pyridin-3-yl)-1H-imidazo[1,2-b]pyrazol-1-yl]phenyl}-5-(pentafluoro-λ^6-sulphanyl)benzamide] had an IC50 of 91 nM.

Turning to `Cc1ccc(S(F)(F)(F)(F)F)cc1C(=O)Nc1ccc(C)c(-n2ccn3nc(-c4cccnc4)cc23)c1` [Example 91, 2-Methyl-N-{4-methyl-3-[6-(pyridin-3-yl)-1H-imidazo[1,2-b]pyrazol-1-yl]phenyl}-5-(pentafluoro-λ^6-sulphanyl)benzamide], the IC50 is 215 nM.

The compound `Cc1ccc(NC(=O)c2cc(C#N)cc(C3(O)CCC3)c2)cc1-n1ccn2nc(-c3cccnc3)cc12` [Example 92, 3-Cyano-5-(1-hydroxycyclobutyl)-N-{4-methyl-3-[6-(pyridin-3-yl)-1H-imidazo[1,2-b]pyrazol-1-yl]phenyl}benzamide] gave an IC50 of 29 nM.

As to `Cc1ccc(NC(=O)c2cc(C#N)nc(C(C)(C)C)c2)cc1-n1ccn2nc(-c3cccnc3)cc12` [Example 93, 2-tert-Butyl-6-cyano-N-{4-methyl-3-[6-(pyridin-3-yl)-1H-imidazo[1,2-b]pyrazol-1-yl]phenyl}-isonicotinamide], it took 19 nM to reach half-maximal inhibition (IC50).

In the case of `N#Cc1cc(C(=O)Nc2ccc(C(F)(F)F)c(-n3ccn4nc(-c5cccnc5)cc34)c2)cc(S(F)(F)(F)(F)F)c1` [Example 95, 3-Cyano-5-(pentafluoro-λ^6-sulphanyl)-N-{3-[6-(pyridin-3-yl)-1H-imidazo[1,2-b]pyrazol-1-yl]-4-(trifluoromethyl)phenyl}benzamide], inhibition was half-maximal at 350 nM (IC50).

Regarding `O=C(Nc1ccc(Cl)c(-n2ccn3nc(-c4cccnc4)cc23)c1)c1cccc(S(F)(F)(F)(F)F)c1` [Example 96, N-{4-Chloro-3-[6-(pyridin-3-yl)-1H-imidazo[1,2-b]pyrazol-1-yl]phenyl}-3-(pentafluoro-λ^6-sulphanyl)benzamide], half-maximal inhibition (IC50) was put at 47 nM.

For the compound `N#Cc1cc(C(=O)Nc2ccc(Cl)c(-n3ccn4nc(-c5cccnc5)cc34)c2)cc(S(F)(F)(F)(F)F)c1` [Example 97, N-{4-Chloro-3-[6-(pyridin-3-yl)-1H-imidazo[1,2-b]pyrazol-1-yl]phenyl}-3-cyano-5-(pentafluoro-λ^6-sulphanyl)benzamide], the IC50 came out at 9.2 nM.

On to `COc1ccc(NC(=O)c2cc(Br)cc(S(F)(F)(F)(F)F)c2)cc1-n1ccn2nc(-c3cccnc3)cc12` [Example 98, 3-Bromo-N-{4-methoxy-3-[6-(pyridin-3-yl)-1H-imidazo[1,2-b]pyrazol-1-yl]phenyl}-5-(pentafluoro-λ^6-sulphanyl)benzamide], for which the IC50 is 595 nM.

Compound `COc1ccc(NC(=O)c2cc(C#N)cc(S(F)(F)(F)(F)F)c2)cc1-n1ccn2nc(-c3cccnc3)cc12` [Example 99, 3-Cyano-N-{4-methoxy-3-[6-(pyridin-3-yl)-1H-imidazo[1,2-b]pyrazol-1-yl]phenyl}-5-(pentafluoro-λ^6-sulphanyl)benzamide] returned an IC50 of 240 nM.

Regarding `Cc1cc(NC(=O)c2cccc(S(F)(F)(F)(F)F)c2)cc(-n2ccn3nc(-c4cccnc4)cc23)c1C` [Example 100, N-{3,4-Dimethyl-5-[6-(pyridin-3-yl)-1H-imidazo[1,2-b]pyrazol-1-yl]phenyl}-3-(pentafluoro-λ^6-sulphanyl)benzamide], the IC50 worked out at 175 nM.

`Cc1c(F)cc(NC(=O)c2cccc(S(F)(F)(F)(F)F)c2)cc1-n1ccn2nc(-c3cccnc3)cc12` [Example 103, N-{3-Fluoro-4-methyl-5-[6-(pyridin-3-yl)-1H-imidazo[1,2-b]pyrazol-1-yl]phenyl}-3-(pentafluoro-λ^6-sulphanyl)benzamide] showed an IC50 of 130 nM.

`Cc1c(F)cc(NC(=O)c2cc(C#N)cc(S(F)(F)(F)(F)F)c2)cc1-n1ccn2nc(-c3cccnc3)cc12` [Example 105, 3-Cyano-N-{3-fluoro-4-methyl-5-[6-(pyridin-3-yl)-1H-imidazo[1,2-b]pyrazol-1-yl]phenyl}-5-(pentafluoro-λ^6-sulphanyl)benzamide] showed an IC50 of 39 nM.

`Cc1c(Cl)cc(NC(=O)c2cccc(S(F)(F)(F)(F)F)c2)cc1-n1ccn2nc(-c3cccnc3)cc12` [Example 106, N-{3-Chloro-4-methyl-5-[6-(pyridin-3-yl)-1H-imidazo[1,2-b]pyrazol-1-yl]phenyl}-3-(pentafluoro-λ^6-sulphanyl)benzamide]: the IC50 worked out at 110 nM.

In turn, `Cc1cc(C)c(-n2ccn3nc(-c4cccnc4)cc23)cc1NC(=O)c1cc(Cl)cc(S(F)(F)(F)(F)F)c1` [Example 108, 3-Chloro-N-{2,4-dimethyl-5-[6-(pyridin-3-yl)-1H-imidazo[1,2-b]pyrazol-1-yl]phenyl}-5-(pentafluoro-λ^6-sulphanyl)benzamide] had an IC50 of 0.7 nM.

Compound `Cc1cc(C)c(-n2ccn3nc(-c4cccnc4)cc23)cc1NC(=O)c1cc(Br)cc(S(F)(F)(F)(F)F)c1` [Example 109, 3-Bromo-N-{2,4-dimethyl-5-[6-(pyridin-3-yl)-1H-imidazo[1,2-b]pyrazol-1-yl]phenyl}-5-(pentafluoro-λ^6-sulphanyl)benzamide] gave an IC50 of 0.5 nM.

As to `Cc1cc(C)c(-n2ccn3nc(-c4cccnc4)cc23)cc1NC(=O)c1cc(C(=O)O)cc(S(F)(F)(F)(F)F)c1` [Example 110, 3-({2,4-Dimethyl-5-[6-(pyridin-3-yl)-1H-imidazo[1,2-b]pyrazol-1-yl]phenyl}carbamoyl)-5-(pentafluoro-λ^6-sulphanyl)benzoic acid], the IC50 was 5 nM.

`Cc1cc(C(=O)Nc2cc(-n3ccn4nc(-c5cccnc5)cc34)c(C)cc2C)cc(S(F)(F)(F)(F)F)c1` [Example 111, N-{2,4-Dimethyl-5-[6-(pyridin-3-yl)-1H-imidazo[1,2-b]pyrazol-1-yl]phenyl}-3-methyl-5-(pentafluoro-λ^6-sulphanyl)benzamide]: the IC50 was 0.7 nM.

Turning to `Cc1cc(C)c(-n2ccn3nc(-c4cccnc4)cc23)cc1NC(=O)c1cc(Br)cc(C(C)(C)C)c1` [Example 113, 3-Bromo-5-tert-butyl-N-{2,4-dimethyl-5-[6-(pyridin-3-yl)-1H-imidazo[1,2-b]pyrazol-1-yl]-phenyl}benzamide], 0.6 nM corresponded to half-maximal inhibition (IC50).

In turn, `Cc1cc(C)c(-n2ccn3nc(-c4cccnc4)cc23)cc1NC(=O)c1cc(C#N)cc(C(C)(C)C)c1` [Example 114, 3-tert-Butyl-5-cyano-N-{2,4-dimethyl-5-[6-(pyridin-3-yl)-1H-imidazo[1,2-b]pyrazol-1-yl]phenyl}-benzamide] showed an IC50 of 0.3 nM.

Compound `Cc1cc(C)c(-n2ccn3nc(-c4cccnc4)cc23)cc1NC(=O)c1cc(Cl)nc(C(C)(C)C)c1` [Example 115, 2-tert-Butyl-6-chloro-N-{2,4-dimethyl-5-[6-(pyridin-3-yl)-1H-imidazo[1,2-b]pyrazol-1-yl]-phenyl}isonicotinamide] returned a 50% inhibitory concentration (IC50) of 0.8 nM.

In turn, `Cc1cc(F)c(NC(=O)c2cc(C#N)cc(C(C)(C)C)c2)cc1-n1ccn2nc(-c3cccnc3)cc12` [Example 118, 3-tert-Butyl-5-cyano-N-{2-fluoro-4-methyl-5-[6-(pyridin-3-yl)-1H-imidazo[1,2-b]pyrazol-1-yl]-phenyl}benzamide] showed a concentration for half-maximal inhibition (IC50) of 0.4 nM.

In turn, `Cc1ccc(NC(=O)c2cccc(S(F)(F)(F)(F)F)c2)c(C)c1-n1ccn2nc(-c3cccnc3)cc12` [Example 119, N-{2,4-Dimethyl-3-[6-(pyridin-3-yl)-1H-imidazo[1,2-b]pyrazol-1-yl]phenyl}-3-(pentafluoro-λ^6-sulphanyl)benzamide] registered an IC50 of 110 nM.

Turning to `Cc1ccc(NC(=O)c2cc(Br)cc(S(F)(F)(F)(F)F)c2)c(C)c1-n1ccn2nc(-c3cccnc3)cc12` [Example 120, 3-Bromo-N-{2,4-dimethyl-3-[6-(pyridin-3-yl)-1H-imidazo[1,2-b]pyrazol-1-yl]phenyl}-5-(pentafluoro-λ^6-sulphanyl)benzamide], the IC50 is 37 nM.

`Cc1ccc(NC(=O)c2cc(C#N)cc(S(F)(F)(F)(F)F)c2)c(C)c1-n1ccn2nc(-c3cccnc3)cc12` [Example 121, 3-Cyano-N-{2,4-dimethyl-3-[6-(pyridin-3-yl)-1H-imidazo[1,2-b]pyrazol-1-yl]phenyl}-5-(pentafluoro-λ^6-sulphanyl)benzamide] returned an IC50 of 18 nM.

On to `Cc1ccc(NC(=O)c2cc(C(F)(F)F)cc(S(N)(=O)=O)c2)cc1-n1ccn2nc(-c3cccnc3)cc12` [Example 122, N-{4-Methyl-3-[6-(pyridin-3-yl)-1H-imidazo[1,2-b]pyrazol-1-yl]phenyl}-3-sulphamoyl-5-(trifluoromethyl)benzamide], for which the IC50 is 3.9 nM.

`Cc1ccc(NC(=O)c2cccc(C(C)(C)C)c2)cc1-n1ccn2nc(-c3cccnc3)cc12` [Example 123, 3-tert-Butyl-N-{4-methyl-3-[6-(pyridin-3-yl)-1H-imidazo[1,2-b]pyrazol-1-yl]phenyl}benzamide] yielded an IC50 of 56 nM.

As for `Cc1cc(C(=O)Nc2ccc(C)c(-n3ccn4nc(-c5cccnc5)cc34)c2)cc(S(N)(=O)=O)c1` [Example 124, 3-Methyl-N-{4-methyl-3-[6-(pyridin-3-yl)-1H-imidazo[1,2-b]pyrazol-1-yl]phenyl}-5-sulphamoyl-benzamide], half-maximal inhibition (IC50) required 297 nM.

One may read the IC50 as the point on the concentration scale where inhibition reaches its midpoint. Read a low IC50 as greater potency in that assay.
